For this experiment, the system named is HepG2 cells. In words: Fat accumulation test in hepatocytes (oil red staining, oleic acid). Type of experiment: cell-based. The settings on record: for Relative fat accumulation level (%): 0.2 mM oleic acid, 24 hours, DMSO=100%. How it is done:
Normal human subcutaneous preadipocytes were precultured using the growth medium in the same manner as in Example 1. The cells were detached using 0.25% trypsin-EDTA, seeded at 10,000 cells/100 μL/well to a 96-well plate using a growth medium, and cultured overnight in a CO2 incubator. On the next day, the medium was replaced with 100 μL of a differentiation medium supplemented with varying concentrations of steviol (12.5, 25, 50, 100 or 200 μg/mL, dissolved in 0.1% DMSO (final concentration)). The cells were cultured for 10 days in a CO2 incubator to induce their differentiation into adipocytes. On the fourth and seventh days after the differentiation induction, the medium was replaced with a fresh medium (100 μL) having the same composition as above. A differentiation medium supplemented with 25 mM LiCl (Cat. No. SML0559, Sigma-Aldrich Co., LLC) was used as a positive control, and a differentiation medium supplemented with 0.1% DMSO (final concentration) was used as a negative control. Cells cultured in a growth medium were used as an untreated control (Untreated). The cells thus cultured were subjected to oil red staining. Specifically, the cells were washed twice with 100 μL of DPBS (Cat. No. 14190250, Thermo Fisher Scientific Inc.). Then, the cells were fixed (room temperature, 10 min) in 100 μL of a 10% formalin solution (Cat. No. 061-00416, FUJIFILM Wako Pure Chemical Corp.). The cells were washed twice with 100 μL of DPBS, then incubated for 1 minute in 100 μL of 60% 2-propanol (Cat. No. 166-04836, FUJIFILM Wako Pure Chemical Corp.) that replaced the medium, and stained for 15 minutes in 100 μL of an oil red staining solution (Cat. No. 00625, Sigma-Aldrich Co., LLC) that replaced the 2-propanol solution. The cells were washed once with 100 μL of 60% 2-propanol and washed twice with 100 μL of DPBS. Then, cell images were taken in 100 μL of DPBS. After subsequent replacement with 120 μL of 100% 2-propanol, oil red was extracted by incubation for 5 minutes, and 100 μL of the extracts was transferred to each well of a fresh 96-well plate. Absorbance (520 nm) was measured using a plate reader (VARIOSKAN FLASH, Thermo Fisher Scientific Inc.), and a relative fat accumulation level was calculated. Significant difference of differentiation non-induced group vs differentiation induced group (negative control group) was tested (two-tailed), and P<0.05 was regarded as having significant difference. Also, significant difference of negative control group vs steviol addition group/positive control group was tested (two-tailed) by the Dunnett test, and P<0.05 was regarded as having significant difference. […] HepG2 cells were precultured using the growth medium in the same manner as in Example 5. The cells were detached using 0.25% trypsin-EDTA, seeded at 30,000 cells/100 μL/well to a 96-well plate using the growth medium, and cultured overnight in a CO2 incubator. On the next day, the medium was replaced with 100 μL of a test medium (DMEM (high glucose) supplemented with 0.2 mM oleic acid (Cat. No. 03008, Sigma-Aldrich), 10% FBS and 1% penicillin-streptomycin) supplemented with varying concentrations of steviol (12.5, 25, 50, 100 or 200 μg/mL, dissolved in 0.1% DMSO (final concentration)). The cells were cultured for 24 hours in a CO2 incubator. A test medium supplemented with 2 mM metformin (Cat. No. M2009, Tokyo Chemical Industry Co., Ltd.) was used as a positive control (Metformin), and a vehicle control composed of a test medium supplemented with 0.1% DMSO (final concentration) was used as a negative control (DMSO). Cells cultured in a test medium containing no oleic acid was used as an untreated control (Untreated). The cells thus cultured were subjected to oil red staining in the same manner as in Example 3, followed by photographing and calculation of a relative fat accumulation level. […]

Consider `C=C1C[C@@]23CC[C@H]4[C@@](C)(CCC[C@@]4(C)C(=O)O)[C@@H]2CC[C@]1(O)C3` [Steviol, steviol], for which the “fat accumulation in HepG2 test (in words)” value (12.5 to 200 μg/mL) was “suppressed fat accumulation in adipocytes in a concentration-dependent manner”. The “Relative fat accumulation level (%)” value (steviol 12.5 μg/mL) turned out to be 98.9%; the “Relative fat accumulation level (%)” value (steviol 25 μg/mL) turned out to be 98.1%; the “Relative fat accumulation level (%)” value (steviol 50 μg/mL) came out at 86.4%; the “Relative fat accumulation level (%)” value (steviol 100 μg/mL) was 85.6%; the “Relative fat accumulation level (%)” value (steviol 200 μg/mL) is 83.0%.

Source of the values: patent publication US20230057359A1, “NOVEL USE OF STEVIOL” (SUNTORY HOLDINGS LIMITED, priority 2019, published 2023).
